Reference: US20220235006A1, “PYRIDINE DERIVATIVES AS TMEM16A MODULATORS FOR USE IN THE TREATMENT OF RESPIRATORY CONDITIONS” (TMEM16A LIMITED, priority 2019, published 2022)

Target: T1, human TMEM16A (TMEM16Aabc variant) (Homo sapiens, UniProt Q5XXA6, DEL476-501)
T1 sequence (Q5XXA6 with tags, fused parts or gaps isoform Q5XXA6-5 DEL539-564): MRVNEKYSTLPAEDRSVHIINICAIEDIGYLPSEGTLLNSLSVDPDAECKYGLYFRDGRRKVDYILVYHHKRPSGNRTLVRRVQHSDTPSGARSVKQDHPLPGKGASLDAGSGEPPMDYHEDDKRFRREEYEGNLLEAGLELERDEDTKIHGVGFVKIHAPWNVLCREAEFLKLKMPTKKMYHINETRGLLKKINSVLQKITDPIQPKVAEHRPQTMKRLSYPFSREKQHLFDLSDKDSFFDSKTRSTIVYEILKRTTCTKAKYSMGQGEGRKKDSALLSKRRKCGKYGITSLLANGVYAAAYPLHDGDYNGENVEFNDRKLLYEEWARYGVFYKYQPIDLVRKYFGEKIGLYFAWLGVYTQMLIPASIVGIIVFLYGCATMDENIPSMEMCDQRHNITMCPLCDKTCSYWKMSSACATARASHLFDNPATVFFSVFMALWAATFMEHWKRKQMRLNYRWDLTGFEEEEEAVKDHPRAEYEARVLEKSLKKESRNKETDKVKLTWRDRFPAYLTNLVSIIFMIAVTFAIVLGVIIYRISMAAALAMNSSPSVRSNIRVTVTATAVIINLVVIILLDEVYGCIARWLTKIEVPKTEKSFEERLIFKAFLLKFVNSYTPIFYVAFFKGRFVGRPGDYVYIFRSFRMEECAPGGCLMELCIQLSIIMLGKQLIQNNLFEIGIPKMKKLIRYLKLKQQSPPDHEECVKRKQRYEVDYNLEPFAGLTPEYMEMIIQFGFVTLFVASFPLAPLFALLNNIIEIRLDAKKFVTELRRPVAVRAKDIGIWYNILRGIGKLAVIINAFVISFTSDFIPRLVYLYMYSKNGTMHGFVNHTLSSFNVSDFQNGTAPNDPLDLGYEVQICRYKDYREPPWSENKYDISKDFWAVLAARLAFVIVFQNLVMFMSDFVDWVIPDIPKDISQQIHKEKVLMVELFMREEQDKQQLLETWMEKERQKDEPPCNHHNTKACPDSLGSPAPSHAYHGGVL
Assay: Automated whole-cell patch clamp (Qpatch) TMEM16A potentiator assay in recombinant FRT cells
Assay type: cell-based
Conditions: for activation at 3.33 µM: percentage increase of baseline TMEM16A current, minimum n = 2, read-out: % Potentiation @ 3.33 uM Avg; for EC50: minimum n = 2
Procedure: Automated Whole-Cell Patch Clamp Assay to Detect TMEM16A Activity in Recombinant Cells
Fisher rat thyroid (FRT) cells stably expressing human TMEM16A (TMEM16Aabc variant; Dr Luis Galietta, Insituto Giannina, Italy) were cultured in T-75 flasks in Hams F-12 media with Coon's modification (Sigma) supplemented with 10% (v/v) foetal bovine serum, penicillin-streptomycin (10,000 U/mL/10000 μg/mL), G-418 (750 μg/mL), L-glutamine (2 mM) and sodium bicarbonate solution (7.5% v/v). At ˜90% confluence cells were harvested for experiments by detachment with a 2:1 (v/v) mixture of Detachin (BMS Biotechnology) and 0.25% (w/v) trypsin-EDTA.
FRT-TMEM16A cells were whole-cell patch clamped using an automated planar patch clamp system (Qpatch, Sophion). Briefly, once high resistance (GOhm) seals were established between the cells and the planar recording array the patch was ruptured using suction pulses to establish the whole-cell recording configuration of the patch clamp technique. The assay employed the following solutions (all reagents Sigma): Intracellular solution (mM): N-methyl-D-glucamine 130, CaCl2 18.2, MgCl2 1, HEPES 10, EGTA 10, BAPTA 20, Mg-ATP 2, pH 7.25, 325 mOsm with sucrose.
Extracellular solution (mM): N-methyl-D-glucamine 130, CaCl2 2, MgCl2 1, HEPES 10, pH 7.3, 320 mOsm with sucrose.
The intracellular solution buffers intracellular calcium at levels required to give ˜20% activation of the maximal TMEM16A mediated current (E020 for calcium ions). Cells were voltage clamped at a holding potential of −70mV and a combined voltage step (to +70 mV)/ramp (−90 my to +90 mV) was applied at 0.05 Hz. After a period of current stabilisation test compounds, solubilised in 100% (v/v) DMSO and subsequently diluted into extracellular solution, were applied to generate a cumulative concentration response curve. Each concentration of test compound was incubated for 5 minutes before addition of the next concentration. After the final concentration was tested a supramaximal concentration of either a known active positive modulator or the TMEM16A inhibitor, CaCCinhA01 (Del La Fuente et al, 2008) was added to define the upper and lower limits of the assay.
Compound activity was quantified by measuring the increase in current upon compound addition and expressing this as a percentage increase of baseline TMEM16A current level.
Peak TMEM16A current at +70 mV was plotted as a function of time over the assay period. Baseline current (IBL) was measured after a period of stabilisation. The increase in current for each compound addition was determined by taking the peak current during the incubation period and subtracting the current from the previous recording period and then expressing this as a percentage of the baseline current (% potentiation). For test compound concentration 1 in FIG. 1 this is:
For each additional concentration tested the increase in current was determined by subtracting the current from the previous incubation period and normalising the baseline value—for test concentration 2 in FIG. 1 this is:
The values for each test concentration were plotted as a cumulative function of concentration eg. for test concentration two this would be the sum of the peak changes measured during concentration one plus concentration two.

| Compound | activation at 3.33 µM | EC50 |
| --- | --- | --- |
| C#CC(C)(C)NC(=O)c1cc(NC(=O)Cc2cc(O)c(C(C)(C)CO)cc2F)ccn1 [Example 16, N-(1,1-Dimethylprop-2-ynyl)-4-[[2-[2-fluoro-5-hydroxy-4-(2-hydroxy-1,1-dimethyl-ethyl)phenyl]acetyl]amino]pyridine-2-carboxamide] | 74.5% | 19 nM |
| CC(CO)c1cc(F)c(CC(=O)Nc2ccnc(C(=O)NC3(C(F)(F)F)CC3)c2)cc1O (stereo not shown) [Example 20, 4-[[2-[2-Fluoro-5-hydroxy-4-(2-hydroxy-1-methyl-ethyl)phenyl]acetyl]amino]-N-[1-(trifluoromethyl)cyclopropyl]pyridine-2-carboxamide] | 295% | 100 nM |
| CC(C)(O)c1cc(F)c(CC(=O)Nc2ccnc(C(=O)NC3(C(F)(F)F)CC3)c2)c(Cl)c1O [Example 18, 4-[[2-[2-Chloro-6-fluoro-3-hydroxy-4-(1-hydroxy-1-methyl-ethyl)phenyl]acetyl]amino]-N-[1-(trifluoromethyl)cyclopropyl]pyridine-2-carboxamide] | 315% | 268 nM |
| CC(C)(CO)c1cc(F)c(CC(=O)Nc2ccnc(C(=O)NC3(CO)CCC3)c2)cc1O [Example 12.4, 4-[[2-[2-Fluoro-5-hydroxy-4-(2-hydroxy-1,1-dimethyl-ethyl)phenyl]acetyl]amino]-N-[1-(hydroxymethyl)cyclobutyl]pyridine-2-carboxamide] | 342% | 214 nM |
| O=C(Cc1cc(O)c(C2(O)CCOCC2)cc1F)Nc1ccnc(C(=O)NC2(C(F)(F)F)CC2)c1 [Example 13, 4-[[2-[2-Fluoro-5-hydroxy-4-(4-hydroxytetrahydropyran-4-yl)phenyl]acetyl]amino]-N-[1-(trifluoromethyl)cyclopropyl]pyridine-2-carboxamide] | 196% | 221 nM |
| CC(C)(C)NC(=O)c1cc(NC(=O)Cc2cc(O)c(C(C)(C)O)cc2F)ccn1 [Example 7, N-tert-Butyl-4-[[2-[2-fluoro-5-hydroxy-4-(1-hydroxy-1-methyl-ethyl)phenyl]acetyl]amino]pyridine-2-carboxamide] | 83.6% | 68 nM |
| CC(C)(CO)NC(=O)c1cc(NC(=O)Cc2cc(O)c(C(C)(C)CO)cc2F)ccn1 [Example 12.3, 4-[[2-[2-Fluoro-5-hydroxy-4-(2-hydroxy-1,1-dimethyl-ethyl)phenyl]acetyl]amino]-N-(2-hydroxy-1,1-dimethyl-ethyl)pyridine-2-carboxamide] | 97.2% | 238 nM |

Continued, values first:

| activation at 3.33 µM | EC50 | Compound |
| --- | --- | --- |
| 226% | 60 nM | CC(C)(CO)c1cc(F)c(CC(=O)Nc2ccnc(C(=O)NC3(C(F)F)CC3)c2)cc1O [Example 15.4, N-[1-(Difluoromethyl)cyclopropyl]-4-[[2-[2-fluoro-5-hydroxy-4-(2-hydroxy-1,1-dimethyl-ethyl)phenyl]acetyl]amino]pyridine-2-carboxamide] |
| 190% | 41 nM | C#CC(C)(C)NC(=O)c1cc(NC(=O)Cc2cc(O)c(C(C)(C)CO)cc2Cl)ccn1 [Example 15.1, 4-[[2-[2-Chloro-5-hydroxy-4-(2-hydroxy-1,1-dimethyl-ethyl)phenyl]acetyl]amino]-N-(1,1-dimethylprop-2-ynyl)pyridine-2-carboxamide] |
| 140% | 407 nM | CC(CO)c1cc(F)c(CC(=O)Nc2ccnc(C(=O)NC3(C)CCOCC3)c2)cc1O (stereo not shown) [Example 16.3, 4-[[2-[2-Fluoro-5-hydroxy-4-(2-hydroxy-1-methyl-ethyl)phenyl]acetyl]amino]-N-(4-methyltetrahydropyran-4-yl)pyridine-2-carboxamide] |
| 295% | 115 nM | CC(C)(C#N)NC(=O)c1cc(NC(=O)Cc2cc(O)c(C(C)(C)CO)cc2F)ccn1 [Example 16.2, N-(1-Cyano-1-methyl-ethyl)-4-[[2-[2-fluoro-5-hydroxy-4-(2-hydroxy-1,1-dimethyl-ethyl)phenyl]acetyl]amino]pyridine-2-carboxamide] |
